# Test results taken from patent US20170190671A1, “BIS(ARYL)CATECHOL DERIVATIVES AS HERBICIDES” (E I DU PONT DE NEMOURS AND COMPANY, priority 2014, published 2017).
# Tests used:
# Test in all cases: Test E postemergence
# Format in all cases: in vivo
# Settings in all cases: scale 0 to 100
# [1] = tested on: barnyardgrass (Echinochloa crus-galli)
# Description: (§1) Seeds of plant species selected from corn (Zea mays), soybean (Glycine max), velvetleaf (Abutilon theophrasti), cocklebur (common cocklebur, Xanthium strumarium), lambsquarters (Chenopodium album), wild poinsettia (Euphorbia heterophylla), palmer pigweed (Amaranthus palmeri), waterhemp (common waterhemp, Amaranthus rudis), surinam grass (Brachiaria decumbens), large (Lg) crabgrass (Digitaria sanguinalis), Brazilian crabgrass (Digitaria horizontalis), fall panicum (Panicum dichotomiflorum), giant foxtail (Setaria faberii), green foxtail (Setaria viridis), goosegrass (Eleusine indica), johnsongrass (Sorghum halepense), ragweed (common ragweed, Ambrosia elatior), barnyardgrass (Echinochloa crus-galli), sandbur (southern sandbur, Cenchrus echinatus), arrowleaf sida (Sida rhombifolia), Italian ryegrass (Lolium multiflorum), dayflower (Virginia (VA) dayflower, Commelina virginica), field bindweed (Convolvulus arvensis), morningglory (Ipomoea coccinea), nightshade (eastern black nightshade, Solanum ptycanthum), kochia (Kochia scoparia), yellow nutsedge (Cyperus esculentus), horseweed (Conyza canadensis), and hairy beggarticks (Bidens pilosa), were planted into a silt loam soil and treated preemergence with test chemicals formulated in a non-phytotoxic solvent mixture which included a surfactant.
# (§2) At the same time, plants from these crop and weed species and also waterhemp_RES1, (ALS & Triazine resistant common waterhemp, Amaranthus rudis), and waterhemp_RES2, (ALS & HPPD resistant common waterhemp, Amaranthus rudis) were planted in pots containing Redi-Earth® planting medium (Scotts Company, 14111 Scottslawn Road, Marysville, Ohio 43041) comprising spaghnum peat moss, vermiculite, wetting agent and starter nutrients were treated with postemergence applications of test chemicals formulated in the same manner. Plants ranged in height from 2 to 18 cm for postemergence treatments (1- to 4-leaf stage). Treated plants and controls were maintained in a greenhouse for 14 to 21 days, after which time all species were compared to controls and visually evaluated. Plant response ratings, summarized in Table E, are based on a scale of 0 to 100 where 0 is no effect and 100 is complete control. A dash (-) response means no test result.
# [2] = tested on: waterhemp (common waterhemp, Amaranthus rudis)
# Description: as §1, §2
# [3] = tested on: waterhemp_RES1 (ALS & Triazine resistant common waterhemp, Amaranthus rudis)
# Description: as §1, §2
# [4] = tested on: horseweed (Conyza canadensis)
# Description: as §1, §2
# kochia (Kochia scoparia) = tested on: kochia (Kochia scoparia)
# Description: as §1, §2
# [5] = tested on: ragweed (common ragweed, Ambrosia elatior)
# Description: as §1, §2
# corn (Zea mays) = tested on: corn (Zea mays)
# Description: as §1, §2
# [6] = tested on: sandbur (southern sandbur, Cenchrus echinatus)
# Description: as §1, §2
# [7] = tested on: Italian ryegrass (Lolium multiflorum)
# Description: as §1, §2
# [8] = tested on: field bindweed (Convolvulus arvensis)
# Description: as §1, §2
# [9] = tested on: fall panicum (Panicum dichotomiflorum)
# Description: as §1, §2
# [10] = tested on: hairy beggarticks (Bidens pilosa)
# Description: as §1, §2
# [11] = tested on: palmer pigweed (Amaranthus palmeri)
# Description: as §1, §2
# [12] = tested on: waterhemp_RES2 (ALS & HPPD resistant common waterhemp, Amaranthus rudis)
# Description: as §1, §2
# [13] = tested on: Brazilian crabgrass (Digitaria horizontalis)
# Description: as §1, §2
# soybean (Glycine max) = tested on: soybean (Glycine max)
# Description: as §1, §2
# [14] = tested on: dayflower (Virginia (VA) dayflower, Commelina virginica)
# Description: as §1, §2
smiles,measurement,setting,value
"N#Cc1cccc(Oc2ncc(Cl)cn2)c1Oc1ncc(C(F)(F)F)cn1 [Compound 38, 3-[(5-chloro-2-pyrimidinyl)oxy]-2-[[5-(trifluoromethyl)-2-pyrimidinyl]oxy]-benzonitrile]","Plant response rating, Barnyardgrass",[1]; 16 g ai/ha,0
same,"Plant response rating, Barnyardgrass",[1]; 31 g ai/ha,10
same,"Plant response rating, Barnyardgrass",[1]; 62 g ai/ha,10
same,"Plant response rating, Barnyardgrass",[1]; 125 g ai/ha,20
same,"Plant response rating, Waterhemp",[2]; 16 g ai/ha,85
same,"Plant response rating, Waterhemp",[2]; 31 g ai/ha,90
same,"Plant response rating, Waterhemp",[2]; 62 g ai/ha,95
same,"Plant response rating, Waterhemp",[2]; 125 g ai/ha,95
same,"Plant response rating, Waterhemp_RES1",[3]; 16 g ai/ha,80
same,"Plant response rating, Waterhemp_RES1",[3]; 31 g ai/ha,90
same,"Plant response rating, Waterhemp_RES1",[3]; 62 g ai/ha,90
same,"Plant response rating, Waterhemp_RES1",[3]; 125 g ai/ha,95
same,"Plant response rating, Horseweed",[4]; 16 g ai/ha,5
same,"Plant response rating, Horseweed",[4]; 31 g ai/ha,10
same,"Plant response rating, Horseweed",[4]; 62 g ai/ha,20
same,"Plant response rating, Horseweed",[4]; 125 g ai/ha,40
same,"Plant response rating, Kochia",kochia (Kochia scoparia); 16 g ai/ha,80
same,"Plant response rating, Kochia",kochia (Kochia scoparia); 31 g ai/ha,80
same,"Plant response rating, Kochia",kochia (Kochia scoparia); 62 g ai/ha,100
same,"Plant response rating, Kochia",kochia (Kochia scoparia); 125 g ai/ha,98
same,"Plant response rating, Ragweed",[5]; 16 g ai/ha,20
same,"Plant response rating, Ragweed",[5]; 31 g ai/ha,20
same,"Plant response rating, Ragweed",[5]; 62 g ai/ha,40
same,"Plant response rating, Ragweed",[5]; 125 g ai/ha,50
same,"Plant response rating, Corn",corn (Zea mays); 16 g ai/ha,0
same,"Plant response rating, Corn",corn (Zea mays); 31 g ai/ha,0
same,"Plant response rating, Corn",corn (Zea mays); 62 g ai/ha,15
same,"Plant response rating, Corn",corn (Zea mays); 125 g ai/ha,20
same,"Plant response rating, Sandbur",[6]; 16 g ai/ha,0
same,"Plant response rating, Sandbur",[6]; 31 g ai/ha,0
same,"Plant response rating, Sandbur",[6]; 62 g ai/ha,10
same,"Plant response rating, Sandbur",[6]; 125 g ai/ha,20
same,"Plant response rating, Ryegrass, Italian",[7]; 16 g ai/ha,0
same,"Plant response rating, Ryegrass, Italian",[7]; 31 g ai/ha,5
same,"Plant response rating, Ryegrass, Italian",[7]; 62 g ai/ha,10
same,"Plant response rating, Ryegrass, Italian",[7]; 125 g ai/ha,15
same,"Plant response rating, Field Bindweed",[8]; 16 g ai/ha,60
same,"Plant response rating, Field Bindweed",[8]; 31 g ai/ha,65
same,"Plant response rating, Field Bindweed",[8]; 62 g ai/ha,80
same,"Plant response rating, Field Bindweed",[8]; 125 g ai/ha,85
same,"Plant response rating, Panicum, Fall",[9]; 16 g ai/ha,10
same,"Plant response rating, Panicum, Fall",[9]; 31 g ai/ha,10
same,"Plant response rating, Panicum, Fall",[9]; 62 g ai/ha,10
same,"Plant response rating, Beggarticks",[10]; 16 g ai/ha,35
same,"Plant response rating, Beggarticks",[10]; 31 g ai/ha,40
same,"Plant response rating, Beggarticks",[10]; 62 g ai/ha,40
same,"Plant response rating, Beggarticks",[10]; 125 g ai/ha,50
same,"Plant response rating, Pigweed, Palmer",[11]; 16 g ai/ha,60
same,"Plant response rating, Pigweed, Palmer",[11]; 31 g ai/ha,75
same,"Plant response rating, Pigweed, Palmer",[11]; 62 g ai/ha,60
same,"Plant response rating, Pigweed, Palmer",[11]; 125 g ai/ha,90
same,"Plant response rating, Waterhemp_RES2",[12]; 16 g ai/ha,75
same,"Plant response rating, Waterhemp_RES2",[12]; 31 g ai/ha,85
same,"Plant response rating, Waterhemp_RES2",[12]; 62 g ai/ha,90
same,"Plant response rating, Waterhemp_RES2",[12]; 125 g ai/ha,95
same,"Plant response rating, Crabgrass, Brazil",[13]; 16 g ai/ha,10
same,"Plant response rating, Crabgrass, Brazil",[13]; 31 g ai/ha,15
same,"Plant response rating, Crabgrass, Brazil",[13]; 62 g ai/ha,20
same,"Plant response rating, Crabgrass, Brazil",[13]; 125 g ai/ha,20
same,"Plant response rating, Soybean",soybean (Glycine max); 16 g ai/ha,70
same,"Plant response rating, Soybean",soybean (Glycine max); 31 g ai/ha,80
same,"Plant response rating, Soybean",soybean (Glycine max); 62 g ai/ha,95
same,"Plant response rating, Soybean",soybean (Glycine max); 125 g ai/ha,98
same,"Plant response rating, Dayflower, VA",[14]; 16 g ai/ha,40
same,"Plant response rating, Dayflower, VA",[14]; 31 g ai/ha,50
same,"Plant response rating, Dayflower, VA",[14]; 62 g ai/ha,60
same,"Plant response rating, Dayflower, VA",[14]; 125 g ai/ha,60
